Data taken from US10071080B2, “MIF inhibitors for the acute or chronic treatment of pulmonary hypertension” (MIFCARE, priority 2014, dated 2018).
Each block holds one compound with its values, some of them ahead of it.

Tests used:
[1] = tested on: MCT-injected rats; experiment: Rodent model of pulmonary hypertension (monocrotaline); type: in vivo; settings: for mean pulmonary arterial pressure (mPAP): 2 weeks; for degree of established PH: started one week after MCT
Procedure: Animal studies were approved by the administrative panel on animal care at the Univ. Paris-Sud, Le Plessis-Robinson, France. Young male Wistar rats (100 g, Janvier Labs, France) were studied 3 weeks after a single subcutaneous injection of monocrotaline (60 mg/kg) (Sigma-Aldrich, Saint-Quentin Fallavier, France), or vehicle. One week after a single subcutaneous injection of monocrotaline (MCT), rats were randomly divided into several groups and treated for 2 weeks with • (example 3) daily intraperitoneal injections of ISO-1, compound 1 of the invention (M3), M41, or vehicle (vehicle A: 50% (v/v) DMSO (Dimethyl sulfoxide) in normal saline for i.v. administrations) at a dose of 10 mg·kg^−1·day^−1; or • (example 4) daily per os administration of compounds of the invention, or vehicle (vehicle B: 33% DMSO, 45% propylene glycol, 21% saline) at a dose of 30 mg·kg^−1·day^−1.
Animals were anesthetized with isoflurane. A polyvinyl catheter was introduced into the right jugular vein and pushed through the right ventricle into the pulmonary artery. Cardiac output in rat was measured using the thermodilution method. After measurement of hemodynamic parameters, the thorax was opened and the left lung immediately removed and frozen. The right lung was fixed in the distended state with formalin buffer. The right ventricular hypertrophy (RVH) index and the percentage of muscularized vessels were determined as previously described (Guignabert C 2009 J Faseb 23 (12): 4135-4147).

[2] = target: T1, recombinant human MIF (Homo sapiens, UniProt P14174); experiment: MIF tautomerase assay using 4-hydroxyphenylpyruvate (4-HPP); type: biochemical; settings: for inhibition at 0.001 µM: compounds at 1 nM, substrate 4-HPP, compared to positive control with rhMIF alone
T1 construct: purchased RayBiotech
T1 sequence (P14174 2-115 limits assumed): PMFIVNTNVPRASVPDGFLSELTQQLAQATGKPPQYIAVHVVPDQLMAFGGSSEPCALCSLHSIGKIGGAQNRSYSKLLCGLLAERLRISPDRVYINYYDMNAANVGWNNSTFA
Procedure: Tautomerase activity was assessed using 4-hydroxyphenylpyruvate (4-HPP) as substrate. 4-HPP was dissolved in 50 mM ammonium acetate at pH 6.0, allowed to equilibrate to room temperature and stored at −20° C. 300 ng/mL of recombinant human MIF (rhMIF; RayBiotech, Le Perray en Yvelines, France) and tested compounds were pre-incubated at room temperature for 15 min. Tautomerase activity was assessed at room temperature, by adding 4-HHP to a 96-well plate containing 0.435 M boric acid at pH 6.6 and rhMIF with or without (positive control) tested compounds (1 nM), and by measuring the increase in absorbance at 320 nm over 10-360 s using the 2103 EnVision™ Multilabel Plate Readers (PerkinElmer, Villebon-sur-Yvette, France). Compounds were tested at 1 nM. The assay was replicated 3 to 6 times independently.

[3] = tested on: DU-145 cell line; experiment: MTT assay, cell proliferation and survival, DU-145; type: cell-based; settings: 24 h, effect significantly superior compared to ISO-1 (p<0.05); for cell survival: 0% FCS, at 100 μM and 50 μM
Procedure: (§1) P-ECs were isolated and cultured from lung specimens of patients with idiopathic pulmonary arterial hypertension (iPAH) as previously described (Tu et al., Am J Respir Cell Mol Biol. 2012). The isolated P-ECs were strongly positive for acetylated low-density lipoprotein coupled to Alexa 488 (Alexa488-Ac-LDL), von Willebrand factor (vWF), CD31, and for Ulex europaeus agglutinin-1 (UEA-1) and negative for alpha-smooth muscle actin (α-SMA). DU-145 cell lines and iPAH ECs were grown in MCDB131 medium (Fisher, Illkirch Cedex, France) supplemented with 10% fetal calf serum (FCS), penicillin-streptomycin solution, glutamine, HEPES and amphotericine.
(§2) To determine the impact of the compounds of the invention on the proliferation and the survival of DU-145 cell line and iPAH P-ECs, the methyl tetrazolium (MTT) assay was performed. To this aim, cells were plated in a 96-well plate and cultured in MCDB131 medium (Fisher, Illkirch Cedex, France) supplemented with 10% fetal calf serum (FCS) for 24 h. DU-145 and iPAH ECs monolayers were then washed and 50 or 100 μM of tested compounds were added with 0% (for cell survival assessment) or 10% (for cell proliferation assessment) of FCS for 24 h. Then, cells were incubated with 5 mg/mL of MTT for 6 h of incubation. At the end of the incubation time, medium was removed, dimethylsulfoxide (DMSO) was added in each well and absorbance was recorded at 590 nm using the microplate spectrophotometer system EnVision (PerkinElmer, Waltam, USA).

[4] = tested on: iPAH P-ECs (human pulmonary endothelial cells); experiment: MTT assay, cell proliferation and survival, iPAH P-ECs; type: cell-based; settings: iPAH EC, 24 h, effect significantly superior compared to ISO-1 (p<0.05); for cell survival: 0% FCS, at 100 μM and 50 μM
Procedure: as §1, §2

[5] = 10 mg/kg daily intraperitoneal, compared to MCT-injected rats treated with vehicle A
[6] = daily intraperitoneal 10 mg/kg/day for 2 weeks, day 21
[7] = 30 mg/kg oral daily, compared to MCT-injected rats treated with vehicle B, p<0.05
[8] = oral daily 30 mg/kg/day for 2 weeks

SMILES: Cc1ccc2oc(=S)n(Cc3cccc(O)c3)c2c1 [Compound 1, 3-(3-hydroxybenzyl)-5-methylbenzo[d]oxazole-2(3H)-thione]
- mean pulmonary arterial pressure (mPAP) [1, 5]: substantial reduction in values of mPAP
- degree of established PH [1, 6]: substantially attenuates the degree of established PH
- mPAP, compared to MCT-injected rats treated with ISO-1 ([1]; same dose, 10 mg/kg, p=0.0855): higher beneficial effects in mPAP
- inhibitory effect against the MIF tautomerase activity (in words) ([2]; compound 1 compared to benzoxazol-2-one analogue M41, compounds of the invention compared to ISO-1): good inhibitory effect
- inhibition at 0.001 µM [2]: 41%

- inhibition at 0.001 µM [2]: 36%
SMILES: COc1ccccc1Cn1c(=S)oc2ccc(C)cc21 [Compound 2, 3-(2-methoxybenzyl)-5-methylbenzo[d]oxazole-2(3H)-thione]

- inhibition at 0.001 µM [2]: 35%
SMILES: Cc1ccc2oc(=S)n(Cc3ccccc3)c2c1 [Compound 3, 3-benzyl-5-methylbenzo[d]oxazole-2(3H)-thione]

SMILES: Cc1ccc2oc(=S)n(Cc3ccc(F)c(O)c3)c2c1 [Compound 4, 3-(4-fluoro-3-hydroxybenzyl)-5-methylbenzo[d]oxazole-2(3H)-thione]
- cell survival [3]: decrease significantly cell survival
- mean pulmonary arterial pressure (mPAP) [1, 7]: substantial reduction
- degree of established PH [1, 8]: substantially attenuates the degree of established PH
- cell survival [4]: decrease significantly cell survival
- inhibition at 0.001 µM [2]: 39%

SMILES: Oc1cc(Cn2c(=S)oc3ccc(C(F)(F)F)cc32)ccc1F [Compound 5, 3-(4-fluoro-3-hydroxybenzyl)-5-(trifluoromethyl)benzo[d]oxazole-2(3H)-thione]
- cell survival [3]: decrease significantly cell survival
- cell proliferation ([3]; 10% FCS, 50 or 100 μM): inhibit significantly cell proliferation
- mean pulmonary arterial pressure (mPAP) [1, 7]: substantial reduction
- degree of established PH, compared with treatment by sildenafil ([1]; compound 5 at 30 mg/kg oral daily for 2 weeks, sildenafil at 100 mg/kg): substantially attenuates the degree of established PH
- degree of established PH [1, 8]: substantially attenuates the degree of established PH
- cell survival [4]: decrease significantly cell survival
- cell proliferation ([4]; 10% FCS, 50 or 100 μM): inhibit significantly cell proliferation
- inhibition at 0.001 µM [2]: 43%

SMILES: Cc1ccc2oc(=O)n(Cc3cccc(O)c3)c2c1 [Compound M41, reference compound]
- mortality rate ([1]; MCT-injected rats, 10 mg/kg/day intraperitoneal): 5/6
- degree of established PH [1, 6]: substantially attenuates the degree of established PH
- inhibition at 0.001 µM [2]: 29%

SMILES: COC(=O)CC1CC(c2ccc(O)cc2)=NO1 (stereo not shown) [ISO-1, reference compound]
- mean pulmonary arterial pressure (mPAP) [1, 5]: substantial reduction in values of mPAP
- inhibition at 0.001 µM [2]: 21%
